Reference: patent US20240400549A1, “COMPOUNDS AND THEIR USES FOR TREATING NEURODEGENERATIVE DISEASE” (Academia Sinica, priority 2021, published 2024)

Experiments:
[1] = target: T1, endogenous TDP-43 protein (FL-TDP-43) (Mus musculus, UniProt Q921F2); experiment: Level of endogenous TDP-43 protein (FL-TDP-43) in Neuro-2a cells; type: cell-based; conditions: mock control 0.91±0.07
T1 construct: the level of endogenous TDP-43 protein (FL-TDP-43); endogenous in cells; host or cells: Neuro-2a (mouse neuroblastoma), also transfected with eGFP-C-TDP-43
Experimental: Mouse neuroblastoma cell line (Neuro-2a) were cultured in Dulbecco's modified Eagle's medium (DMEM; Gibco) containing 2×10^−3 M glutamine, 10% heat inactivated fetal bovine serum (FBS), and 100 U mL^−1 penicillin-streptomycin (Gibco) at 37° C. in a humidified incubator containing 5% CO2. Alternatively, Neuro-2a cells were cultured in Dulbecco's modified Eagle's medium (DMEM; Invitrogen, Carlsbad, CA, USA) supplemented with 10% heat-inactivated FBS. The cells were incubated in a humidified incubator at 37° C. with 10% CO2. Transfection was performed using T-Pro NTR II (Ji-Feng Biotechnology, Taiwan) following the manufacturer's protocol.
Neuro-2a cells were seeded in a 6-well plate at a concentration of 2×10^5 cells/well and incubated overnight. Once the cells were attached, Neuro-2a cells were transfected with the eGFP-C-TDP-43 plasmid (2.2 μg) using Turbofect transfection reagent (Invitrogen) and treated with or without 5 μM test compound after 2 h transfection. After incubation for another 22 h, the transfected cells were harvested by RIPA buffer containing protease inhibitor (Roche) and sonicated on ice for 10 seconds. […] Aggregated eGFP-C-TDP-43 protein trapped by the CA membranes was determined by immunoblotting. […]
Proteins were separated using 12% Tris-glycine SDS-PAGE. […] The signals were visualized with luminescence (iBright™ FL1000 instrument, Invitrogen). […]

[2] = test system: C-TDP-43 expressed Neuro-2a cells; experiment: AlamarBlue cell viability in C-TDP-43 expressed Neuro-2a cells; type: cell-based, mouse; conditions: 5 μM; eGFP-C-TDP-43 overexpressing Neuro-2a cells; mock 0.43±0.04 vs blank control 1±0.03
Experimental: Neuro-2a cells were seeded in a 24-well plate at a concentration of 8×10^4 cells/well and incubated overnight. The attached Neuro-2a cells were then transfected with the eGFP-C-TDP-43 plasmid (1.1 μg) using TurboFect™ transfection reagent (Invitrogen) according to manufacturer's recommendations, and treated with or without 5 μM test compound after 2 h transfection. The cell viability indicator, AlamarBlue (Invitrogen), was added after 42 h of incubation, and the mixture was incubated for another 6 h. […] conditional medium was transferred to a 96-well plate, and cell viability was determined by the increased fluorescence intensity (λex=560 nm, λem=590 nm).
In this example, whether the compounds of formula (I) or (II) could relieve C-TDP-43-mediated cytotoxicity was examined.

[3] = test system: Neuro-2a cells; experiment: Cytotoxicity of compounds in Neuro-2a cells; type: cell-based, mouse; conditions: 5 μM concentration
[4] = test system: YFP—C-TDP-43 transgenic C. elegans; experiment: Swimming (thrashing) body bend assay of YFP-C-TDP-43 transgenic C. elegans; type: in vivo; conditions: YFP—C-TDP-43 C. elegans, swimming in buffer, 30 seconds
Experimental: The YFP—C-TDP-43 transgenic strains of C. elegans generated in this study were IW33 [Psnb-l:C-TDP-43219-414-YFP (iwIs22)]. The strains of nematodes were maintained with standard procedure and grown at 20° C. as previously described (Zhang, T. et al. Hum. Mol. Genet. 2011, 20 (10), 1952). For all assays, the transgenic young two-day (80 hours) adults were used. For larvae synchronization, the eggs were isolated by lysing gravid adult worms with freshly prepared bleaching solution (0.5 mL 5 M NaOH with 1 mL bleach) and incubated in S buffer (recipe) for overnight. For drug treatments, compound I-1b and/or DMSO were solely or along with MG132 applied to fresh NGM plates prior to installing the synchronized C. elegans. The body bends of the corresponding treatment in a duration of 30 seconds of the various strains were documented through SMZ800N stereomicroscope equipped with a CCD camera (Nikon). A body bend was counted as the head of C. elegans travels across the mid-body in 1×PBS buffer. Then, the bending videos of C. elegans were analyzed by ImageJ with the wrMTrck plugin (Nussbaum-Krammer, C. I. et al. J. Vis. Exp. 2015, (95), 52321). […]
As YFP—C-TDP-43 readily forms cytosolic aggregates in nervous system, the YFP—C-TDP-43 aggregates both in the neuron processes and neuron bodies of the ventral cord were monitored. […]

T1 sequence (Q921F2 whole entry): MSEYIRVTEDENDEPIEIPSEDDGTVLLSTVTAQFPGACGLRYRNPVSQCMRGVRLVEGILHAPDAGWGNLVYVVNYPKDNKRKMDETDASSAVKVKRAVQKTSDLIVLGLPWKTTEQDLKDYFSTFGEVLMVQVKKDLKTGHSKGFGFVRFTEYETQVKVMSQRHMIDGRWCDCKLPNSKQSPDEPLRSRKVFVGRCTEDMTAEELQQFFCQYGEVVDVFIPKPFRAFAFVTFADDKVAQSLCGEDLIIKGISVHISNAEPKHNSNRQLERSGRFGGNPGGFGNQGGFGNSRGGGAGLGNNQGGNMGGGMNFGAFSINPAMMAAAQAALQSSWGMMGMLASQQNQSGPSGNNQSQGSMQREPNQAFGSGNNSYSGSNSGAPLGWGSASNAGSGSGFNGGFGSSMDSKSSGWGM

## CN(C)c1ccc(-c2nc3ccc(OCCOCCOCCNc4cccc5c4C(=O)N(C4CCC(=O)NC4=O)C5=O)cc3s2)cc1 (stereo not shown) [I-1b, 4-((2-(2-(2-((2-(4-(dimethylamino)phenyl)benzo[d]thiazol-6-yl)oxy)ethoxy)ethoxy)ethyl)amino)-2-(2,6-dioxopiperidin-3-yl)isoindoline-1,3-dione]
[1]
  level of endogenous TDP-43 protein (FL-TDP-43): 1.11±0.14
[2]
  cell viability: 0.56±0.04
[3]
  cytotoxicity comparing to mock group of Neuro-2a cells: neglectable cytotoxicity
[4]
  increase of bending frequency as compared to the DMSO control group: 28%
